According to publication PMC7830545, “Rational Design of CYP3A4 Inhibitors: A One-Atom Linker Elongation in Ritonavir-Like Compounds Leads to a Marked Improvement in the Binding Strength” (International Journal of Molecular Sciences, 2021):

How the values were obtained:
[1] = molecular target: T1, CYP3A4 (Homo sapiens, UniProt P08684); assay: Inhibitory potency for BFC O-debenzylation activity in a soluble reconstituted system; assay type: biochemical; parameters: The full-length CYP3A4 and rat cytochrome P450 reductase (40 and 60 μM, respectively) were preincubated; made in house; details: BFC debenzylase activity, 0.1 μM CYP3A4 with cytochrome P450 reductase, no NADPH preincubation
T1 sequence (P08684 whole entry): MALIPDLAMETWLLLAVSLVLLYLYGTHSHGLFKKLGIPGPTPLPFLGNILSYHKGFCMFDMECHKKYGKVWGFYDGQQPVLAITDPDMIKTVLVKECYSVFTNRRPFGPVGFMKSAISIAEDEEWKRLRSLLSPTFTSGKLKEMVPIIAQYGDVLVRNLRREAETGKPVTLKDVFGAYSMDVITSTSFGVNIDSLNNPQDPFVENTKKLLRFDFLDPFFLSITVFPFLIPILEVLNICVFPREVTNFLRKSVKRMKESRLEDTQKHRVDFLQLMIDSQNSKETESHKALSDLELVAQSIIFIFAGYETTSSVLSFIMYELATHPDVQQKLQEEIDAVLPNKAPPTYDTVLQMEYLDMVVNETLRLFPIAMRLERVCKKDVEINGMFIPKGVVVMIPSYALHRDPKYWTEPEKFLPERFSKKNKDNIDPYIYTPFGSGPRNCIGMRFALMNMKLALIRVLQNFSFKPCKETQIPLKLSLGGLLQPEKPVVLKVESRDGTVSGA

[2] = molecular target: T1, CYP3A4; assay: Thermal denaturation (melting temperature of ligand-bound CYP3A4); assay type: binding; parameters: Codon-optimized full-length and Δ3–22 human CYP3A4 were produced as reported previously [45] and used for assays and crystallization, respectively; made in house; details: 1 μM protein, 20 μM ligand; for ΔTm at 15 min, 20 μM: human, purified CYP3A4 protein, pH 7.4, ligand-dependent change in melting temperature; for ΔTm: ligand-dependent change in melting temperature
Procedure: Thermal Denaturation—Thermal denaturation curves were recorded in 0.1 M phosphate buffer, pH 7.4, in a Cary 300 spectrophotometer. Protein (1 μM) was mixed with a ligand (20 μM) and incubated for 15 min at 23 °C. Melting curves were recorded at 260 nm using a 0.2 °C measurement step, 0.9 °C/min ramp rate, and a 50–75 °C temperature range. A denaturation midpoint (melting temperature; Tm) was determined from non-linear fittings to the melting curve as described earlier.

[3] = molecular target: T1, CYP3A4; assay: Kinetics of heme reduction of inhibitor-bound CYP3A4 with sodium dithionite; parameters: Codon-optimized full-length and Δ3–22 human CYP3A4 were produced as reported previously [45] and used for assays and crystallization, respectively; made in house; details: for portion of the protein reduced: k ET, heme reduction by sodium dithionite; for k ET: rate constant for reduction of inhibitor-bound CYP3A4 with sodium dithionite
Text: Ritonavir-like molecules inhibit CYP3A4 not only via heme ligation and decrease in the heme redox potential but also by blocking the active site and preventing substrates from accessing the catalytic centre. We usually evaluate the heme accessibility by measuring the rate and percentage of anaerobic heme reduction by sodium dithionite, an artificial electron donor (k^ET in Table 1). […] Therefore, we utilized another method, heme bleaching with hydrogen peroxide, to probe the accessibility of the cofactor. H2O2 is a small oxidizing agent that easily penetrates the protein interior and destroys the heme without altering the P450 structure. Due to the complex, multiphasic nature of heme decay kinetics, it was more convenient to compare the percentage of heme destroyed at the end of the reaction.
(§1) Kinetics of Ligand Binding and Heme Reduction—Kinetics of ligand binding to CYP3A4 and its reduction with sodium dithionite were measured at 426 and 443 nm, respectively, in a SX.18MV stopped flow apparatus (Applied Photophysics, UK), as described earlier.

[4] = molecular target: T1, CYP3A4; assay: H2O2-dependent heme depletion assay; parameters: Codon-optimized full-length and Δ3–22 human CYP3A4 were produced as reported previously [45] and used for assays and crystallization, respectively; made in house; details: for % decay (heme destroyed at the end of the reaction): 1.6 μM CYP3A4, 16 μM inhibitor, 10 mM H2O2, 120 min, relative to ligand-free CYP3A4 (100% decay); for heme preserved: 10 mM H2O2, end of the reaction; for higher heme loss: weaker ligands compared with the strongest binders/inhibitors
[5] = molecular target: T1, CYP3A4; assay: Spectral binding titrations (equilibrium ligand binding, type II spectral change); parameters: Codon-optimized full-length and Δ3–22 human CYP3A4 were produced as reported previously [45] and used for assays and crystallization, respectively; made in house; details: for Kd: WT CYP3A4, 2 μM protein, pH 7.4, quadratic fits to titration plots, read-out: Ks (spectral dissociation constant); for λmax (nm) Ferric: ferric inhibitor-bound CYP3A4, Soret band; for λmax (nm) ferrous: ferrous inhibitor-bound CYP3A4, Soret band; for ΔAmax: maximal absorbance change (peak/trough in difference spectrum) relative to that induced by ritonavir; for A421/417: ratio between the absorbance maxima of ferric ligand-bound and ligand-free CYP3A4
[6] = molecular target: T1, CYP3A4; assay: Stopped-flow kinetics of ligand binding; parameters: Codon-optimized full-length and Δ3–22 human CYP3A4 were produced as reported previously [45] and used for assays and crystallization, respectively; made in house; details: for k fast: rate constant for the fast phase of the ligand binding reaction; for percentage of the fast phase: value in brackets of k fast column
Procedure: as §1

[7] = molecular target: T2, K421A/K424A CYP3A4 (Homo sapiens, UniProt P08684, K421A/K424A); assay: Spectral binding titrations with the K421A/K424A mutant; details: read-out: Ks (dissociation constant)
T2 construct: made in house
T2 sequence (P08684 with tags, fused parts or gaps K421A/K424A): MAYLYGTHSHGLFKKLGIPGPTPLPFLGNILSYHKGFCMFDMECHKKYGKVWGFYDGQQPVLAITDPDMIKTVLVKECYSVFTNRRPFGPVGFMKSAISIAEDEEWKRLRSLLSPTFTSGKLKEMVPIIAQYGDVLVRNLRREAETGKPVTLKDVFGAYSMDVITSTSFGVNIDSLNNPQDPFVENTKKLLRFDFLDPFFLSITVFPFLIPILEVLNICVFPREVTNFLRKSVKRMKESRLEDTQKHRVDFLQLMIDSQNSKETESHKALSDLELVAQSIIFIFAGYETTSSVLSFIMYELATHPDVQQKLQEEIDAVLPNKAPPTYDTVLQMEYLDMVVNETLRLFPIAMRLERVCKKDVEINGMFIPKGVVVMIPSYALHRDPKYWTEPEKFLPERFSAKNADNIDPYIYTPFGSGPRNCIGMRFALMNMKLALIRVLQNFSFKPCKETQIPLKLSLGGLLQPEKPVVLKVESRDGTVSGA

CC(C)(C)OC(=O)NC(CSC(Cc1ccccc1)C(=O)NCCCc1cccnc1)Cc1cccc2ccccc12 (centres unmarked) [Compound 3f]
IC50 [1]: 160 ± 30 nM | ΔTm at 15 min, 20 μM [2]: 7.9 °C | portion of the protein reduced [3]: 94% | k ET [3]: 0.011 s⁻¹ | % decay (heme destroyed at the end of the reaction) [4]: 15% | heme preserved [4]: > 80%

CC(C)(C)OC(=O)NC(CSC(Cc1ccccc1)C(=O)NCCOCc1cccnc1)Cc1ccccc1 (centres unmarked) [Compound 6]
IC50 [1]: 730 ± 60 nM | Kd [5]: 213 ± 9 nM | λmax (nm) Ferric [5]: 422 nm | λmax (nm) ferrous [5]: 443 nm | ΔAmax [5]: 113% | A421/417 [5]: 1.07 | ΔTm at 15 min, 20 μM [2]: < 3 °C | k fast [6]: 9.5 s⁻¹ | percentage of the fast phase [6]: 29% | portion of the protein reduced [3]: 65% | k ET [3]: 0.017 s⁻¹ | % decay (heme destroyed at the end of the reaction) [4]: 34% | higher heme loss [4]: 4–16%

CC(C)(C)OC(=O)N[C@H](CS[C@@H](Cc1ccccc1)C(=O)NCCCc1cccnc1)Cc1ccccc1 [Compound 3c]
IC50 [1]: 310 ± 40 nM | ΔTm at 15 min, 20 μM [2]: 5.8 °C | portion of the protein reduced [3]: 77% | k ET [3]: 0.012 s⁻¹

CC(C)(C)OC(=O)N[C@@H](CS[C@H](Cc1ccccc1)C(=O)NCCCc1cccnc1)Cc1ccccc1 [Compound 3d]
Kd [7]: 19 nM | IC50 [1]: 210 ± 20 nM | ΔTm at 15 min, 20 μM [2]: 5.6 °C | k fast [6]: 12.0 s⁻¹ | percentage of the fast phase [6]: 38% | portion of the protein reduced [3]: 95% | k ET [3]: 0.013 s⁻¹ | % decay (heme destroyed at the end of the reaction) [4]: 22%

CC(C)(C)OC(=O)NC(CSC(Cc1ccccc1)C(=O)NCCCc1cccnc1)Cc1cccc2ccccc12 (centres unmarked) [Compound 3g]
IC50 [1]: 300 ± 60 nM | Kd [5]: 24 ± 6 nM | λmax (nm) Ferric [5]: 422 nm | λmax (nm) ferrous [5]: 444 nm | ΔAmax [5]: 111% | A421/417 [5]: 1.09 | ΔTm [2]: 4.9 °C | k fast [6]: 10.8 s⁻¹ | percentage of the fast phase [6]: 32% | portion of the protein reduced [3]: 75% | k ET [3]: 0.011 s⁻¹ | % decay (heme destroyed at the end of the reaction) [4]: 22% | higher heme loss [4]: 4–16%

CC(C)(C)OC(=O)NC(CSCC(Nc1ccccc1)C(=O)NCc1cccnc1)Cc1cccc2ccccc12 (centres unmarked) [Compound 5b, reference compound]
% decay (heme destroyed at the end of the reaction) [4]: 25%

CC(C)(C)OC(=O)N[C@H](CS[C@@H](Cc1ccccc1)C(=O)NCCCc1cccnc1)Cc1cccc2ccccc12 [Compound 3h]
IC50 [1]: 90 ± 10 nM | Kd [5]: 7 ± 1 nM | λmax (nm) Ferric [5]: 422 nm | λmax (nm) ferrous [5]: 444 nm | ΔAmax [5]: 112% | A421/417 [5]: 1.09 | k fast [6]: 16.1 s⁻¹ | percentage of the fast phase [6]: 24% | portion of the protein reduced [3]: 72% | k ET [3]: 0.017 s⁻¹ | % decay (heme destroyed at the end of the reaction) [4]: 12% | heme preserved [4]: > 80%

CC(C)(C)OC(=O)N[C@@H](CS[C@H](Cc1ccccc1)C(=O)NCCCc1cccnc1)Cc1cccc2ccccc12 [Compound 3i]
Kd [7]: 25 nM | IC50 [1]: 150 ± 20 nM | Kd [5]: 18 ± 3 nM | λmax (nm) Ferric [5]: 422 nm | λmax (nm) ferrous [5]: 444 nm | ΔAmax [5]: 114% | A421/417 [5]: 1.10 | ΔTm at 15 min, 20 μM [2]: 5.5 °C | k fast [6]: 12.3 s⁻¹ | percentage of the fast phase [6]: 24% | portion of the protein reduced [3]: 97% | k ET [3]: 0.021 s⁻¹ | % decay (heme destroyed at the end of the reaction) [4]: 23%

CC(C)(C)OC(=O)NC(CSCC(Nc1ccccc1)C(=O)NCCCc1cccnc1)Cc1ccccc1 (centres unmarked) [Compound 8]
IC50 [1]: 330 ± 30 nM | Kd [5]: 28 ± 4 nM | λmax (nm) Ferric [5]: 422 nm | λmax (nm) ferrous [5]: 444 nm | ΔAmax [5]: 114% | A421/417 [5]: 1.10 | ΔTm at 15 min, 20 μM [2]: 5 °C | k fast [6]: 16.2 s⁻¹ | percentage of the fast phase [6]: 30% | portion of the protein reduced [3]: 58% | k ET [3]: 0.018 s⁻¹ | % decay (heme destroyed at the end of the reaction) [4]: 22%

CC(C)(C)OC(=O)N[C@H](CS[C@H](Cc1ccccc1)C(=O)NCCCc1cccnc1)Cc1c[nH]c2ccccc12 [Compound 3e]
IC50 [1]: 150 ± 30 nM | Kd [5]: 19 ± 2 nM | λmax (nm) Ferric [5]: 422 nm | λmax (nm) ferrous [5]: 444 nm | ΔAmax [5]: 125% | A421/417 [5]: 1.11 | fold decrease in Ks ([5]; relative to shorter pyridyl-ethyl counterpart 7b (series IV)): 4 fold | ΔTm at 15 min, 20 μM [2]: 7.8 °C | k fast [6]: 20.1 s⁻¹ | percentage of the fast phase [6]: 24% | portion of the protein reduced [3]: 85% | k ET [3]: 0.020 s⁻¹ | % decay (heme destroyed at the end of the reaction) [4]: 18% | heme preserved [4]: > 80%

CC(C)(C)OC(=O)NC(CSC(Cc1ccccc1)C(=O)NCCCc1cccnc1)Cc1ccccc1 (centres unmarked) [Compound 3a]
IC50 [1]: 160 ± 20 nM | ΔTm at 15 min, 20 μM [2]: 8.1 °C | k fast [6]: 12.5 s⁻¹ | percentage of the fast phase [6]: 36% | % decay (heme destroyed at the end of the reaction) [4]: 18% | heme preserved [4]: > 80%

CC(C)(C)OC(=O)NC(CSC(Cc1ccccc1)C(=O)NCCCc1cccnc1)Cc1ccccc1 (centres unmarked) [Compound 3b]
IC50 [1]: 300 ± 20 nM | Kd [5]: 29 ± 4 nM | λmax (nm) Ferric [5]: 421 nm | λmax (nm) ferrous [5]: 443 nm | ΔAmax [5]: 111% | A421/417 [5]: 1.08 | ΔTm [2]: 5.3 °C | portion of the protein reduced [3]: 87% | k ET [3]: 0.014 s⁻¹ | % decay (heme destroyed at the end of the reaction) [4]: 26% | higher heme loss [4]: 4–16%
